BindingDB's records for doi:10.1002/cmdc.200500008 (Philipps-Universität Marburg, 2006)

Tests used:
[1] = target: Gag-Pol polyprotein (Human immunodeficiency virus type 1 group M subtype B (isolate BRU/LAI), UniProt P03367); test: Enzymatic Assay; conditions: pH 5.5
Procedure: Binding constants for inhibition of HIV protease were determined as previously described.

[2] = target: Cathepsin D (Homo sapiens, UniProt P07339); test: Enzymatic Assay; conditions: pH 5.5
Sequence of Cathepsin D (P07339 65-162 limits assumed): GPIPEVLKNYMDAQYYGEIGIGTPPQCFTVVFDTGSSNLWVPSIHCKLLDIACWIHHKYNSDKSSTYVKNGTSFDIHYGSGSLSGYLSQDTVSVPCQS
Sequence of Cathepsin D (P07339 169-412 limits assumed): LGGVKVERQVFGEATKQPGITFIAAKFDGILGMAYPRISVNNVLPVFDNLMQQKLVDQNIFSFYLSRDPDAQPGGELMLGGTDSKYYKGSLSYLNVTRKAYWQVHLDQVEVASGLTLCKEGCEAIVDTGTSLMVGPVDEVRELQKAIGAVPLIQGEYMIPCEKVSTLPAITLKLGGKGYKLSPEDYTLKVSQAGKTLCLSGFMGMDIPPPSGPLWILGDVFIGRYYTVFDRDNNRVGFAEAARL

| SMILES | IC50 [1] [µM] | IC50 [2] [µM] |
| --- | --- | --- |
| Cc1cccc(C)c1OCC(=O)N(Cc1ccccc1)CC1CNC[C@H]1CN(CC(C)C)S(=O)(=O)c1ccccc1 (stereo not given in full) [Aspartyl protease inhibitor, 13] | 2.2 | > 40 |
| Cc1cccc(C)c1OCC(=O)N(Cc1ccccc1)CC1CNC[C@H]1CN(CC(C)C)S(=O)(=O)c1ccc(N)cc1 (stereo not given in full) [Aspartyl protease inhibitor, 14] | 3.3 | > 40 |
| Cc1ccc(S(=O)(=O)N(CC(C)C)C[C@@H]2CNCC2CN(Cc2ccccc2)C(=O)COc2c(C)cccc2C)cc1 (stereo not given in full) [Aspartyl protease inhibitor, 15] | 12.1 | > 40 |
| COc1cc(Br)c(OC(=O)N(Cc2ccccc2)CC2CNC[C@H]2CN(CCc2ccc(Cl)cc2Cl)C(=O)CCCc2ccccc2)cc1OC (stereo not given in full) [Aspartyl protease inhibitor, 16] | 19.8 | 1.05 |
| COc1cc(Br)c(OC(=O)N(Cc2ccccc2)CC2CNC[C@H]2CN(CCc2ccc(Cl)cc2Cl)C(=O)CCN2C(=O)c3ccccc3C2=O)cc1OC (stereo not given in full) [Aspartyl protease inhibitor, 17] | 22.1 | 0.57 |
